Patent publication US12138300B2, “Methods and compositions for inducing neural plasticity” (CASE WESTERN RESERVE UNIVERSITY, priority 2018, dated 2024)

What was measured:
[1] = tested on: WT primary NSCs; assay: Neural stem cell differentiation assay, neurite outgrowth (MAP2 immunostaining); type: cell-based, mouse; conditions: 2.5 μM peptide, differentiated in vitro for 5 days
Experimental: Briefly, glass coverslips in an untreated 24-well plate were coated with poly-ornithine and laminin After splitting neurospheres during passaging, individual cells were plated at a density of 10^4 cells/cm^2 in 500 μl of NBM-GF. Every other day, 250 μl of media was removed from each well and 300 μl of fresh NBM-GF was added. When the attached cell reached approximately 70% confluency (around day 5), all NBM-GF within each well was gently removed and immediately replaced with neurobasal media without growth factor (NBM) with ISP peptide (2.5 μM) or scramble peptide (2.5 μM). Each well was fed daily by removing 250 μl of the media and adding 300 μl of the media containing ISP or scramble peptide. On Day 5 after complete replacement of the NBM-GF, the wells were fixed with 4% paraformaldehyde for 15 min at room temperature and stored in phosphate-buffered saline at 4° C. until staining.
Cells cultured on coverslip were fixed in 4% PFA for 15 min, permeabilized in 0.1% Triton-X100 for 10 min and then incubated in 10% normal goat serum for 1 hour. […] Three coverslips were analyzed per condition. Random selections of field in each coverslip were chosen and imaged by Stereo Investigator Software (MBF Bioscience, Williston, VT, USA), and quantitative data was obtained by using NIH ImageJ software.

[2] = tested on: stroke mice; assay: Survival of stroke mice after tMCAO with post-stroke treatment; type: in vivo, mouse
Experimental: First, the efficacy of post-stroke ISP treatment in the C57BL/6 mouse was tested using a proximal middle cerebral artery occlusion (pMCAO) model. Three cohorts of mice (n=59) were subjected to MCAO surgery to induce a large stroke in both striatal and cortical tissue, mimicking a human “malignant” stroke, which tends to be fatal in humans. Stroke mice were subjected to T2 weighted MRI scanning to determine the size of the stroke injury and were grouped blindly into two equally distributed groups that received either daily vehicle (5% DMSO) or daily ISP (20 μg/mouse/day or 30 μg/mouse/day S.C. injections) treatment starting from 24 hours after stroke onset for 6 weeks.
Transient middle cerebra artery occlusion (tMCAO) was induced in male C57BL/6 mice (12 weeks old, 25-30 g) by intraluminal occlusion of the left MCA for 45 min with silicone rubber-coated monofilament (Cat. 602212PK10Re and 602312PK10Re, Doccol Corporation). Briefly, mice were anesthetized with isoflurance. Body temperature was monitored and maintained at 37±0.5° C. by homeothermic blanket control unit (Harvard apparatus). To minimize animal's pain, mice were subcutaneously injected with buprenorphine. […] To ensure consistent and successful blockage of MCA, regional cerebral blood flow was monitored in all stroke animals by Laser Doppler flowmetry (PeriFlux system 5000, Perimed, Sweden). […]

[3] = tested on: stroke mice; assay: Computer automated open field locomotion analysis in stroke mice; type: in vivo, mouse
Experimental: First, the efficacy of post-stroke ISP treatment in the C57BL/6 mouse was tested using a proximal middle cerebral artery occlusion (pMCAO) model. Three cohorts of mice (n=59) were subjected to MCAO surgery to induce a large stroke in both striatal and cortical tissue, mimicking a human “malignant” stroke, which tends to be fatal in humans. […]
To test the timing of ISP administration relative to the time of injury, and the corresponding effect on recovery, adult C57bl/6J female and male mice were subjected to transient proximal MCAO surgery (35 min) as described above. […]
Mice motor activities were assessed using Accuscan activity monitor (Columbus, OH, USA) one day before and 3, 7, 14, 21, 35 and 42 days after tMCAO as previously described. […] To avoid observer bias, this locomotor test was automatically monitored by the computer and software. Locomotor activity was calculated by automated Versamax software (Accuscan, Columbus, OH, USA). The following variables were measured: (A) horizontal activity (the total number of beam interruptions that occurred in the horizontal sensors); (B) total distance traveled (cm, the distance traveled by the animals); (C) Vertical activity (the total number of beam interruptions that occurred in vertical sensors).

[4] = tested on: stroke mice; assay: Adhesive removal test (sensorimotor function) in stroke mice; type: in vivo, mouse; conditions: post-stroke treatment
Experimental: This test was performed on days 7, 14, 21, 28, 35 and 42 post-stroke in order to examine the sensorimotor deficits. Each mice was placed into transparent cylinder (15 cm diameter) during a habituation period of 1 min Thereafter, two different colored adhesive labels (2.5 mm diameter made by punch, Tough Spots) were applied with equal pressure on each mouse's forepaw. The times required to remove the adhesive labels were measured with a maximum of 2 min. To achieve an optimum level of performance, mice should be trained for 4 days before surgery.

[5] = tested on: stroke mice; assay: Barnes maze test (cognitive function) in stroke mice; type: in vivo, mouse; conditions: 4 weeks after stroke; vs vehicle
From the text: The spatial memory of ischemic mice was examined using Barnes maze (Stoelting Company, WoodDale, IL, USA) 28 days after tMCAO. The maze consists of a 91.5 cm diameter circular platform with 20 holes around the perimeter. Mice were discouraged to idle around aimlessly by blowing fans and a bright light above the platform. At day 0, mice were gently guided to enter the target hole after removing the start chamber. At day 1, mice were trained for 4 trials in 2 sessions to find the escape tunnel placed under the target hole. Once mice entered the target hole, the hole was covered and mice were allowed to stay in it for 2 min. If mice could not locate the target hole within 5 min, mice were guided by the observer to enter the target hole. At day 2, one trial was run and video-taped until the mouse getting into the target hole or stopped at 5 mins when the mouse could not locate the target hole. Time spent to locate the escaping hole and error numbers in finding the hiding hole made by the mouse were measured by an observer in a blinded fashion.

[6] = tested on: stroke mice; assay: Quantification of brain atrophy in stroke animals; type: in vivo, mouse; conditions: post-stroke 6-week brain sections
Experimental: The post-stroke 6-week brain sections (25 μm) were mounted on PLL-coated slides. The sections were rehydrated in KH2PO4 buffer (pH 4.5) for 10 min, and then stained in pre-warm 10% Giemsa solution for 30 min at 42° C. After a brief rinse with KH2PO4 buffer, sections were dehydrated in absolute ethanol, cleared in xylene and mounted with Histoseal. A set of serial sections was imaged by Path Scan Enabler IV slide scanner. Contralateral and ipsilateral brain areas were quantified using ImageJ software. The calculation formula of atrophy rate is as follows: Σ (contralateral brain area−ipsilateral brain area)/Σ contralateral brain area×100%.

[7] = tested on: stroke mice; assay: DCX+ neuroblast formation in post-stroke mice; type: in vivo, mouse; conditions: post-stroke treatment; vs vehicle
[8] = tested on: stroke mice; assay: Anterograde BDA tracing and quantification of corticospinal tract axonal sprouting; type: in vivo, mouse; conditions: post-stroke treatment; crossed CST fibers at cervical spinal cord, BDA tracing
Experimental: Four weeks after tMCAO, mice were anesthetized with 1.5% isoflurane/oxygen mixture and stabilized in a stereotaxic frame. 1.5 μl of the biotin dextran amine (BDA, MW10,000; 10% in PBS, invitrogen) were injected at three sites in the contralesional cortex (coordinates: 1. A/P 0.0 mm, M/L −2 mm, D/V −1 mm; 2.A/P 0.5 mm, M/L-1.5 mm, D/V-1 mm; 3. A/P 0.5 mm, M/L −2 mm, D/V −1 mm) Two weeks later, brain and cervical spinal cord were harvested after cardiac perfusion with PBS followed by 4% paraformaldehyde. After post-fix overnight in 4% paraformaldehyde and cryoprotection in 20% and 30% sucrose, coronal brain sections and transverse spinal cord sections were cut at 30 μm thickness. For the detection of BDA, sections were rinsed in 0.1M PB and incubated in 0.3% H2O2 for 30 min to inactivate endogenous peroxidase, followed by incubation for 2 hours with a Vectastain® ABC kit (Vector Laboratories, Burlingame, CA, USA). Staining was developed with 2,3′ diaminobenziine tetrahydrochloride (0.5 mg/ml in 0.1M PB). The number and length of midline-cross BDA+ fiber were assessed in a blinded manner Sections were analyzed with ImageJ software.

[9] = tested on: adult NSCs; assay: Migration of neural stem cells on CSPGs (aggrecan coating); type: cell-based, mouse; conditions: 2.5 μM peptide, 21 hours, with or without aggrecan coating
From the text: Primary stem cells were obtained from C57BL/6J mice at 5 weeks of age. After euthanization, whole brains were immediately harvested and dissected under microscope to obtain the subventricular zone (SVZ) tissue. After mechanical dissociation with a stab knife, the tissue fragment were processed using trypsin and resuspended as individual cells at a density of 10^4 cell/cm^2 in neurobasal media with growth factors (epidermal growth factor and basic fibroblast growth factor) (NBM-GF). Subsequent passaging of cells were performed using Accutase® (innovative #AT-104, CA, USA) every 7 days until the cells established viable lines, and cellular debris was naturally diminished after each passage. At day 4 of each passage, the proliferating spheres were fed with NBM-GF. We used neurospheres at passage P3-P8 in this study.
To determine the effects of CSPGs on the migration of neural stem cells in vitro, flat-bottom 48-well plates were first coated with poly-L-lysine overnight, followed by a rinsing with water. Aggrecan (A1960, sigma) were coated onto the 48-well plates at the concentration of 1 ug/ml and 10 ug/ml diluted in sterile water overnight, followed by a rinsing with water. The control wells contained poly-L-lysine alone. […] The inner area and total area of neurospheres were measured by ImageJ software. […]

Sequence	neurite outgrowth (neurite length) in differentiated NSCs [1]	survival of stroke animals over time ([2]; continuous post-stroke treatment started 24 hours post-stroke, tMCAO mice, vehicle 44.828%)	survival rate of stroke animals ([2]; treatment initiated at 24 hours post stroke, daily S.C., vs vehicle)	locomotor function (total distance travelled, total horizontal activity, total vertical activity) ([3]; treatment from 24 h post-stroke, 2-4 weeks after stroke, vs vehicle)	open field locomotion performance (total distance, horizontal activity, vertical activity), delayed treatment ([3]; treatment initiated 7 days post stroke, 1 mg/kg/day for 3 weeks, by week four)	speed of tape removal, affected limb ([4]; affected front paw, vs vehicle)	tape removal, unaffected limb ([4]; unaffected front paw)	error trials to find the escape hole in the Barnes maze [5]	time to find the escape hole in the Barnes maze [5]	chronic atrophy of brain after stroke [6]	DCX+ neuroblasts near the lateral ventricle and adjacent striatal tissues [7]	axonal sprouting from contralateral corticospinal tract [8]	migration of adult NSCs (normalized migration index) [9]
GRKKRRQRRRCIREDDSLMLYALAQEKKESNMHES [scrambled ISP peptide, reference compound]	no effects												
GRKKRRQRRRCDMAEHMERLKANDSLKLSQEYESI [ISP]	consistently increased neurite outgrowth	67.742%	improve the survival rate of stroke animals significantly	significantly increased	significant effects in improved performance	significantly improved the speed	without any obvious effects	less error trials	significantly less time	decreases the chronic atrophy of brain	enhanced	enhanced	alleviates the inhibition of CSPGs on NSCs migration
